System: retinal nerve cells
Assay: intracellular calcium experimental method in cultured chick embryo retinal cells with photostimulation (Fluo-4 fluorescence and intracellular potential)
Assay type: cell-based
From the text: All the above polymethine organic dye compounds can be obtained in the desired amount either by the method disclosed in “Kanko-Shikiso” (Photosynthetic Dyes), pp. 11–31, edited by Masaaki Hayami, published by Sangyo Tosho Publisher on Oct. 17, 1997; or in accordance therewith. In case the compounds are commercially available, they can be optionally purified prior to use. Evaluation of whether organic dye compounds evoke receptor potential in response to photostimulation in the optic nerve can be determined in accordance with the intracellular calcium experiment method disclosed in “Jikken-Igaku” (Experimental Medicine), Vol. 7, No. 6, edited by Hideaki Karaki et al., published on Apr. 5, 1989 by Yodosha, Co., Ltd., Tokyo, Japan, with a modification that an organic dye compound to be tested coexists in animal retinal cells cultured in a nutrient culture medium containing a fluorescent calcium indicator, followed by detecting the intensity of fluorescence emitted from the indicator or of the electric potential generated intracellularly. […]
Thereafter, Fluo-4 acetoxymethyl ester, commercialized by Molecular Probe, Oregon, U.S.A., a fluorescent calcium indicator, was added to each well of the culture plates to give a concentration of 10 μM, incubated at 37° C. for 30 min, and further incubated for another 30 min similarly as above except for omitting Fluo-4 acetoxymethyl ester. […] The organic dye compounds in Table 1 were respectively dissolved in dimethylsulfoxide and irradiated with a light having a wavelength of 470 to 490 nm to excite Fluo-4 acetoxymethyl ester before or after being added to each culture in each well to give a concentration of 0.0005 to 0.5 μg/ml, followed by detecting the intensity of fluorescence and the intracellular potential at a wavelength of around 510 to 550 nm emitted from the excited Fluo-4 acetoxymethyl ester. […]

CCCC1=NN(c2ccc(S(=O)(=O)[O-])cc2)C(=O)C1=CC=C(C=Cc1c(CCC)nn(-c2ccc(S(=O)(=O)[O-])cc2)c1[O-])c1ccccc1.[Na+].[Na+].[Na+] [Chemical Formula 14]
Fluorescent intensity With calcicludine (as above, with 2.5 μM of calcicludine (antagonist of L-, N-, P-type high-threshold calcium channels)): Unchanged | Fluorescent intensity Without calcicludine (chick embryo retinal nerve cells loaded with Fluo-4 acetoxymethyl ester, dye 0.0005 to 0.5 μg/ml, light 470 to 490 nm, emission around 510 to 550 nm, no calcicludine): Increased | Intracellular potential (receptor potential observed as intracellular potential, dye 0.0005 to 0.5 μg/ml, light 470 to 490 nm, absence of calcicludine): Detected

Source: patent publication US7101533B2, “Agent for inducing receptor potential” (Kabushiki Kaisha Hayashibara Seibutsu Kagaku Kenkyujo, priority 2002, dated 2006)
